According to US8242058B2, “Reagents and methods for appending functional groups to proteins” (Wisconsin Alumni Research Foundation, priority 2006, dated 2012):
Blank lines part the entries; values can stand above or below the molecule they belong to.

Tests used:
[1] = cited from earlier work
[2] = Kinetics of thioester cleavage (release of thiophenolate, absorbance at 410 nm); details: for fold greater k1 value than ethyl amine / rate constants (k2 and k1) for thioester cleavage: pH 7.0, 25° C.; for fold greater k1 value than ethyl amine: pseudo-unimolecular conditions
Experimental: To identify the optimal nitrogen nucleophile for a thioester, kinetic studies were performed on a model chromogenic thioester: AcGlySC6H4-p-NO2. The rate of release of the thiophenolate anion was monitored by measuring the change in absorbance at 410 nm (Scheme 1). Nitrogen nucleophiles with conjugate-acid pKa values ranging from 4.6 to 10.6 (Table 1) were used in the experiments. The logarithmic values of the second-order rate constants (k2) of the unprotonated primary amines were plotted against the pKa values of their conjugate acids to yield the Brønsted plot shown in FIG. 2A. The data were fitted to the equation^[26]: log k2=log(AB)+(β+β′)pKa−log(A10^βpK^a+B10^β′pK^a) (1) In eq 1, A and B are constants, β′ is the slope of the former part of the Brønsted plot, and β is the slope of the latter part.
Kinetics of thioester cleavage: AcGlySC6H4-p-NO2 was dissolved in anhydrous acetonitrile to a concentration of 0.45 mM and used immediately. Amine solutions (except CF3CH2NH2.HCl) were prepared by dissolving the amine hydrochloride salts in 0.10 M sodium phosphate buffer at pH 7.0 to a concentration of 0.15 M. Reaction mixtures were prepared in a 1,1-mL volume and equilibrated at 25° C. All reactions contained […] acetonitrile. The ionic strength of each reaction mixture was I=0.22-0.25. All reactions were carried out with a large excess of amine and followed pseudo-first-order kinetics. In a cuvette containing 0.10 M sodium phosphate buffer at pH 7.0 (967 μL), amine solution (0.15 M, 100 μL) was added and the absorbance at 410 nm was adjusted to zero. The thioester (33 μL of a 0.45 mM solution in acetonitrile) was then added to the cuvette, and the absorbance at 410 nm was monitored with time (ε=11,230 M^−1cm^−1 for p-nitrothiophenolate anion). […] This value is likely to be lower in an aqueous buffer, such that the ionization of the p-nitrothiophenol product is virtually complete in all our assays. The final concentration of the thioester in the reaction was 13.64 μM and the final concentration of the amines (except CF3CH2NH2.HCl) was 13.64 mM. Each reaction was performed in triplicate. The reactions were allowed to go to completion, and the t1/2 was determined from the kinetic trace. The t1/2 was corrected by subtracting the t1/2 for hydrolysis from the observed value. Pseudo-first-order rate constants were calculated by using the equation k1=0.693/t1/2. Second-order rate constants were obtained by dividing each observed first-order rate constant by the concentration of free amine. Logarithmic values of second-order rate constants were plotted against the pKa values of the conjugate acids of the respective amines to yield a Brønsted plot.
Using a higher buffer concentration was not ideal, as that would increase the ionic strength to a much value much larger than that in other reaction mixtures. To overcome these problems, the reaction with CF3CH2NH2 was carried out using 40.92 mM CF3CH2NH2.HCl and allowing the pH of the reaction mixture to decrease to 5.8. The observed t12 was corrected by subtracting the t12 for hydrolysis at pH 5.8. The second-order rate constant was calculated by accounting for the concentration of free amine at pH 5.8, and the resulting value was used in the Brønsted plot. The first-order rate constant thus obtained was not compared to those for the other nucleophiles.

[3] = target: T1, Met(−1)RNase A-Gly-mxe intein thioester (UniProt P20533+P61823); experiment: On-resin cleavage of the intein fusion protein thioester; details: on chitin resin
T1 construct: made in house; host or cells: E. coli BL21 (DE3), plasmid pJK01
T1 sequence (P61823+P20533 with tags, fused parts or gaps): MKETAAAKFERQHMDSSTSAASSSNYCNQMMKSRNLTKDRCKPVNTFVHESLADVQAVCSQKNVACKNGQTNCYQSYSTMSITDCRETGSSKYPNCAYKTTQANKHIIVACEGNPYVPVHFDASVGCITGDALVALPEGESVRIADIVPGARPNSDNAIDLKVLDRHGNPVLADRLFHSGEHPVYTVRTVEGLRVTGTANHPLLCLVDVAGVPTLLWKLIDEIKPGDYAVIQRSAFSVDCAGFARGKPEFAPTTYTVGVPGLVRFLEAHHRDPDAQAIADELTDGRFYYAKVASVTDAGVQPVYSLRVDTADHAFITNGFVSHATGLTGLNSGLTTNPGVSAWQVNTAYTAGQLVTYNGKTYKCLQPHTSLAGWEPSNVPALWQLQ
From the text: Next, we sought to use our bifunctional reagents to install an azido group at the C terminus of a model protein. As our protein, we chose bovine pancreatic ribonuclease (RNase A), which has been the object of much seminal work in protein chemistry and has been manipulated previously with expressed protein ligation. RNase A has valine as its C-terminal residue. A valine residue at the C terminus of a target protein is known to have a debilitating effect on the cleavage efficiency of protein-intein thioesters. To avert this problem, we inserted a glycine residue between the C terminus of RNase A and the intein. The resulting Met(−1)RNase A-Gly-mxe intein-chitin-binding domain fusion protein (MW ˜36 kDa) was produced in E. coli, and the cell lysate was loaded onto chitin resin. Azides 1 and 2 were used to induce the on-resin cleavage of the fusion protein. […] The purity of the azido-RNase A (even upon elution from the chitin column) was apparent from SDS-PAGE analysis (FIG. 3A); the integrity of the azido-RNase A was verified by using MALDI-TOF mass spectrometry (FIG. 3B). This procedure produced an overall yield of ˜1 mg of purified azido-RNase A per liter of E. coli culture. […]

[4] = Storage stability of the reagent; type: physicochemical; details: TFA salt, storage under vacuum
From the text: Azide 2 was synthesized by the route in Scheme 3. Briefly, 4-pentenoic acid was subjected to ozonolysis, and the resulting aldehyde was reacted in-situ with Boc-protected hydrazine. The azido group was installed by coupling 1-azido-2-aminoethane (4) to the carboxylic acid. The hydrazone was then reduced selectively with NaCNBH3. The Boc group was removed to produce azide 2 as its trifluoroacetic acid (TFA) salt with an overall yield of 26% (which includes the 80% yield for the synthesis of azide 3).

[5] = target: T2, ribonuclease inhibitor protein (RI) (Homo sapiens, UniProt P13489); experiment: RI binding to immobilized RNase A (immunoassay, ellipsometry); details: RI 10 μM, 10 min at 4° C.
T2 sequence (P13489 2-461 limits assumed): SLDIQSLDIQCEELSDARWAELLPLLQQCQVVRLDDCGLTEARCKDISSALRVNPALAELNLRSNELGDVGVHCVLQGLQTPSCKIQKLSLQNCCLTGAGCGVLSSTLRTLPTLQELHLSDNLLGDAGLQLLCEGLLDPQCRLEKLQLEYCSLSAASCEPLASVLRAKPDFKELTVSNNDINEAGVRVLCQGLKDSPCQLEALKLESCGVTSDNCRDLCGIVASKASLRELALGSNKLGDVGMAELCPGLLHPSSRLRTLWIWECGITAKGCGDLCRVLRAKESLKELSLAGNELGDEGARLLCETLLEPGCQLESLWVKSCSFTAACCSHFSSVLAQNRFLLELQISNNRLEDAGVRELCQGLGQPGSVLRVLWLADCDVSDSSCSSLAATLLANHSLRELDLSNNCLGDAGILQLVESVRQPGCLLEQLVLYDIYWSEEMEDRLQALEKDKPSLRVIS
Experimental: RI binding to immobilized RNase A. Azido-RNase A (1 μL, 10 μM in 5% DMF/water) was spotted on phosphinothioester-displaying SAMs on a gold chip for 15 minutes at r.t. in an AtmosBag™ filled with Ar(g). The chip was taken out of the bag and rinsed with sodium phosphate buffer (25 mM) at pH 7.5 (2×20 mL) and incubated in the same buffer for 30 min to remove non-specifically bound RNase A. RI (10 μM in sodium phosphate buffer (25 mM) at pH 7.5 containing 10 mM DTT) was overlaid on the chip for 10 min at 4° C. The chip was then rinsed with sodium phosphate buffer (25 mM) at pH 7.5 containing 10 mM DTT (2×20 mL) and incubated in the same buffer for 15 min.
Detection of RI bound to immobilized RNase A. (i) Immunoassay: After RI binding, the chip was overlaid with bovine serum albumin (2.0 mg/mL in sodium phosphate buffer (25 mM) at pH 7.5) for 15 min. The chip was rinsed with sodium phosphate buffer (25 mM) at pH 7.5 (2×20 mL) and subsequently incubated with chicken primary antibody to RI (12.5 μg/mL in sodium phosphate buffer (25 mM) at pH 7.5) for 15 min. […] The chip was scanned with a Genomic Solutions® GeneTac UC4×4 Fluorescence Scanner using a gain of 50. […]

[6] = test system: 6-carboxyfluorescein-dArU(dA)2-6-carboxytetramethylrhodamine; experiment: RNase A activity assay on immobilized RNase A; type: biochemical; details: chip overlaid with 10 μM protein, pH 6.0
Experimental: RNase A activity assay on immobilized RNase A. A phosphinothioester chip was overlaid with azido-RNase A (10 μM in 5% DMF/H2O) for 15 min in Ar(g) atmosphere in an AtmosBag™ to immobilize RNase A via Staudinger ligation. The chip was rinsed with sodium phosphate buffer (25 mM) at pH 7.5 (2×20 mL) and then introduced into a vial containing 2-(N-Morpholino)ethanesulfonic acid buffer (0.1 M) at pH 6.0 (22 mL, containing 0.1 M NaCl). A fluorogenic substrate of RNase A, 6-carboxyfluorescein-dArU(dA)2-6-carboxytetramethylrhodamine (10 μl of a 40 μM solution), was introduced into the vial. The vial was placed on a shaker and 2 mL aliquots were withdrawn at various time intervals and the fluorescence measured (λex=493 nm, λem=515 nm). The fluorescence intensity was plotted against time. A phosphinothioester chip was overlaid with wt-RNase A (10 μM in 5% DMF/H2O) and rinsed with sodium phosphate buffer (25 mM) at pH 7.5 (2×20 mL) and a similar assay was performed. As a negative control, a similar assay was performed on a phosphinothioester chip which was not overlaid with RNase A. The percentage of the fluorescent substrate cleaved at various time intervals were subtracted from the corresponding values for the negative control to generate the graph in FIG. 8.

Molecule: NCCO [HOCH2CH2NH2]
- pKa of conjugate acid [1]: 9.50^[22]

Molecule: CNN [CH3NHNH2]
- fold greater k1 value than ethyl amine [2]: 100 fold
- pKa of conjugate acid [1]: 7.87^[25]

Molecule: CCOC(=O)CNN [C2H5O(O)CCH2NHNH2]
- fold greater k1 value than ethyl amine [2]: 30 fold
- pKa of conjugate acid [1]: 6.45^[24]

Molecule: NCC(F)(F)F [F3CCH2NH2]
- nucleophilicity at pH 7.0 (aminolysis versus hydrolysis) ([2]; pH 7.0, standard reaction conditions): poor nucleophile
- pKa of conjugate acid [1]: 5.40^[23]

Molecule: COC(=O)CN [CH3O(O)CCH2NH2]
- pKa of conjugate acid [1]: 7.75^[22]

Molecule: CON [CH3ONH2]
- pKa of conjugate acid [1]: 4.60^[22]

Molecule: [N-]=[N+]=NCCNC(=O)CNN [azide 1, H2NNHCH2CONHCH2CH2N3]
- efficiency of cleaving the protein-intein thioester [3]: much more effective than azide 2
- rate constants (k2 and k1) for thioester cleavage [2]: indistinguishable from those of the α-hydrazino acetyl group

Molecule: CCN [CH3CH2NH2]
- nucleophilicity of unprotonated amines (k2, Brønsted plot) ([2]; all amines deprotonated, 25° C.): best nucleophile
- pKa of conjugate acid [1]: 10.63^[22]

Molecule: CF3CO2H.H2NNHCH2CH2CH2CONHCH2CH2N3 [azide 2]
- rate constants (k2 and k1) for thioester cleavage [2]: much lower than those of methylhydrazine
- stability on storage [4]: unstable

- RI binding to chip incubated with the protein [5]: No RI binding was observed
B1: wild-type RNase A: bovine pancreatic ribonuclease (RNase A), unmodified wild-type, Sigma Chemical (protein, UniProt P61823 27-150, looked up)
Ribonuclease pancreatic: KETAAAKFERQHMDSSTSAASSSNYCNQMMKSRNLTKDRCKPVNTFVHESLADVQAVCSQKNVACKNGQTNCYQSYSTMSITDCRETGSSKYPNCAYKTTQANKHIIVACEGNPYVPVHFDASV
- enzymatic activity of chip incubated with the protein (increase of fluorescence intensity) [6]: small enzymatic activity
